{"source": "patent US20190374509A1", "about": "“Methods of Using Metamizole for Treatment of Pyrexia in Equines” (Kindred Biosciences, Inc., priority 2018, published 2019)", "key": {"horses [1]": {"system": "horses", "experiment": "Pyrexia efficacy Study 2 (masked, randomized, placebo controlled, crossover, rectal temperature)", "type": "in vivo", "settings": "for Mean (standard deviation) temperature: 30 mg/kg IV single dose", "procedure": "Study 2: The masked, randomized, placebo controlled laboratory study was conducted at a clinical research organization in the United States. IACUC approval was obtained prior to the conduct of the study. Horses one year of age or older were comingled by the Investigator in order to facilitate transmission of respiratory infections. Horses were monitored by the study staff for elevation of rectal temperature. […] Unblinded dose administrators administered the study drug (Phase 1). A single dose of study drug was administered. Treatment was either dipyrone (30 mg/kg IV) or placebo (saline, matched volume, IV). Blinded personnel recorded the rectal temperature at 4 and 6 hours post-treatment administration. Twenty-four hours following Dose 1 horses were monitored for rectal temperature. Horses with rectal temperature≥102.0° F. were crossed over to the other treatment group. Unblinded dose administrators administered the study drug (Phase 2), and blinded personnel recorded the rectal temperature 4 and 6 hours post-treatment administration. […] Blinding was maintained until the completion of the statistical analysis.\n(§1) In both studies horses were assessed daily to determine overall safety. Medications that could have impacted the temperature or the underlying cause of the disease were not permitted in either study; however, horses in both studies were eligible for rescue at the discretion of the Investigator. Following completion of the study, the Investigator treated the horses with standard of care for the type, and severity, of clinical signs. Statistical analysis was performed with the Wilcoxon rank sum test (SAS®, SAS Institute, Cary N.C., version 9.4)."}, "horses [2]": {"system": "horses", "experiment": "Pyrexia efficacy Study 1 (unmasked, single IV dose, rectal temperature)", "type": "in vivo", "settings": "30 mg/kg IV single dose; for Mean (± SD) temperature change from baseline: horses with rectal temperature ≥102.0° F.", "procedure": "Study 1: The unmasked laboratory study was conducted at a clinical research organization in the United States. Institutional Animal Care and Use Committee (IACUC) approval was obtained prior to the conduct of the study. Horses one year of age or older were comingled by the Investigator in order to facilitate transmission of respiratory infections. Horses were monitored by the study staff for elevation of rectal temperature. All horses received treatment once the rectal temperature was ≥102.0° F. A single dose of dipyrone was administered intravenously (30 mg/kg IV). Rectal temperature was monitored 1, 2, 3, and 6 hours post-treatment administration.\nas §1"}, "horses [3]": {"system": "horses", "experiment": "Margin of safety study: lung bacterial culture at necropsy"}, "horses [4]": {"system": "horses", "experiment": "Coagulation effects study, IV BID or TID for 9 days: coagulation panel", "type": "in vivo", "settings": "for Prothrombin Time LSMEAN: in s; for Difference in Individual Horse Day 10 PT and Baseline PT: Day 10 PT minus highest baseline PT", "procedure": "The purpose of this study was to evaluate the effects of metamizole on coagulation parameters and pharmacokinetic parameters when administered intravenously to horses for 9 days at doses of 0 mg/kg (0×), 30 mg/kg (1×), 60 mg/kg (2×), and 90 mg/kg (3×) of body weight. Doses of 0×, 1×, 2×, and 3× were administered twice daily (BID), every 12 hours±120 min. Doses of 1× and 2× were administered three times daily (TID), every 8 hours±120 min. Metamizole plasma concentrations were assessed in the 1×BID, 3×BID, 1×TID, and 2×TID treatments groups to evaluate for evidence of accumulation.\nThis was a prospective, randomized, masked, placebo-controlled, parallel-group laboratory study. The protocol was approved by the research laboratory's Institutional Animal Care and Use Committee (IACUC). The study was conducted in compliance with the principles of the relevant CVM Good Clinical Practices Guidelines. Horse care and housing was in compliance with Guide for the Care and Use of Agricultural Animals in Research and Teaching. The study was conducted at a research laboratory with extensive experience in regulatory studies of large animals in the United States.\nThe investigational drug was a sterile injectable formulation of dipyrone (Zimeta®, Corden Pharma, Caponago, Italy) (500 mg/mL) in 100 mL glass bottles. The placebo was sterile injectable saline (0.9% Saline, Nova-Tech Inc, Grand Island, NE) (0.9% sodium chloride) in 500 mL plastic bottles labeled for veterinary use. Dipyrone treatment groups were 30 mg/kg/dose (1×) administered twice daily (BID), 1× administered three times daily (TID), 60 mg/kg/dose (2×) BID, 2×TID, and 90 mg/kg/dose (3×) BID. Placebo treatment group, (0×) BID, were saline administered at a volume to match the 1× dipyrone group. The dose was calculated based on body weight and administered for nine consecutive days (Days 1-9). Due to the large volume of the injection at the higher test intervals, treatment was administered via indwelling intravenous catheters. Intravenous catheters were placed using standard techniques. Horses were sedated with xylazine (XylaMed™, VetOne, MWI, Boise, Id.) (0.6 mg/kg, IV) and the skin was desensitized with subcutaneous injection of lidocaine (Lidocaine 2%, VetOne, MWI, Boise, Id.). Intravenous catheters were replaced at the discretion of the study director and were maintained with heparinized saline flush prior to, and following, dose administration.\nHorses were acclimated to the facility for 14 days prior to start of the treatment phase. […] On Day −1, thirty-two horses were randomized by the study statistician and moved to their assigned pens. On Day −1 (baseline), Day 4, and Day 10 horses had blood collected for a coagulation panel. A physical exam was performed prior to study start and on Day 10.\nFor continuous endpoints with repeated post-treatment measurements (coagulation), repeated measurement analysis of covariance (SAS MIXED procedure repeated measures of analysis of covariance (RMANCOVA)) were used to evaluate a model including treatment, time, sex, treatment by sex interaction, treatment by time interaction, time by sex interaction, and treatment by time by sex three-way interaction as fixed effects. In addition, baseline values were included as a covariate and remained in the model regardless of its significance. Baseline values were defined as the values prior to and nearest to the first dosing."}, "[5]": {"settings": "2X TID, 60 mg/kg IV three times daily"}, "[6]": {"settings": "3X BID, 90 mg/kg IV twice daily"}}, "data": [{"smiles": "Cc1c(N(C)CS(=O)(=O)O)c(=O)n(-c2ccccc2)n1C", "note": "[dipyrone, [(2,3-dihydro-1,5-dimethyl-3-oxo-2-phenyl-1H-pyrazol-4-yl)methylamino] methanesulfonic acid]", "values": [{"measurement": "Mean (standard deviation) temperature", "setting": "horses [1]; Phase 1, hour 4", "result": 100.0, "unit": "° F."}, {"measurement": "Mean (standard deviation) temperature", "setting": "horses [1]; Phase 1, hour 6", "result": 100.8, "unit": "° F."}, {"measurement": "Mean (standard deviation) temperature", "setting": "horses [1]; Phase 2 (crossover), hour 4", "result": 100.4, "unit": "° F."}, {"measurement": "Mean (standard deviation) temperature", "setting": "horses [1]; Phase 2 (crossover), hour 6", "result": 100.8, "unit": "° F."}, {"measurement": "Rectal temperature compared to controls", "setting": "horses [1]; 30 mg/kg IV, both phases, Hour 4, p<0.0001", "result": "significantly lowered rectal temperatures"}, {"measurement": "Mean (± SD) temperature change from baseline", "setting": "horses [2]; Hour 1", "result": "−1.1 (± 0.5) ° F."}, {"measurement": "Mean (± SD) temperature change from baseline", "setting": "horses [2]; Hour 2", "result": "−1.4 (± 1.0) ° F."}, {"measurement": "Mean (± SD) temperature change from baseline", "setting": "horses [2]; Hour 3", "result": "−1.9 (± 1.0) ° F."}, {"measurement": "Mean (± SD) temperature change from baseline", "setting": "horses [2]; Hour 6", "result": "−1.9 (± 1.1) ° F."}, {"measurement": "Fever reduction post-dose", "setting": "horses [2]; Hours 1, 2, 3, 6", "result": "significantly reduced fever at all measured timepoints post-dose"}, {"measurement": "Horses with reduced fever (>1° F.)", "setting": "horses [2]; eight horses, Hour 6", "result": 87.5, "unit": "%"}, {"measurement": "Horses with return to normothermia (≥2° F.)", "setting": "horses [2]; eight horses, Hour 6", "result": 75, "unit": "%"}, {"measurement": "S. aureus cultured at necropsy, number positive horses", "setting": "horses [3]; 1X, 30 mg/kg IV every 8 hours", "result": 1}, {"measurement": "Acinetobacter sp. cultured at necropsy, number positive horses", "setting": "horses [3]; 2X, 60 mg/kg IV every 8 hours", "result": "2X (n = 1)"}, {"measurement": "Aeromonas sp. cultured at necropsy, number positive horses", "setting": "horses [3]; 2X, 60 mg/kg IV every 8 hours", "result": "2X (n = 1)"}, {"measurement": "Pantoea sp. cultured at necropsy, number positive horses", "setting": "horses [3]; 2X, 60 mg/kg IV every 8 hours", "result": "2X (n = 1)"}, {"measurement": "Pseudomonas sp. cultured at necropsy, number positive horses", "setting": "horses [3]; 2X, 60 mg/kg IV every 8 hours", "result": "2X (n = 1)"}, {"measurement": "S. aureus cultured at necropsy, number positive horses", "setting": "horses [3]; 2X, 60 mg/kg IV every 8 hours", "result": 2}, {"measurement": "S. dysgalactiae subsp. equisimilis cultured at necropsy, number positive horses", "setting": "horses [3]; 2X, 60 mg/kg IV every 8 hours", "result": "2X (n = 1)"}, {"measurement": "S. equi subsp. zooepidemicus cultured at necropsy, number positive horses", "setting": "horses [3]; 2X, 60 mg/kg IV every 8 hours", "result": "0X (n = 2), 2X (n = 1), 3X (n = 1)"}, {"measurement": "S. aureus cultured at necropsy, number positive horses", "setting": "horses [3]; 3X, 90 mg/kg IV every 8 hours", "result": 2}, {"measurement": "S. equi subsp. zooepidemicus cultured at necropsy, number positive horses", "setting": "horses [3]; 3X, 90 mg/kg IV every 8 hours", "result": "0X (n = 2), 2X (n = 1), 3X (n = 1)"}, {"measurement": "Prothrombin Time LSMEAN", "setting": "horses [4]; 1X BID, 30 mg/kg IV twice daily for 9 days", "result": 13.407}, {"measurement": "Prothrombin Time LSMEAN", "setting": "horses [4]; 1X TID, 30 mg/kg IV three times daily for 9 days", "result": 13.553}, {"measurement": "Prothrombin Time LSMEAN", "setting": "horses [4]; 2X BID, 60 mg/kg IV twice daily for 9 days", "result": 13.469}, {"measurement": "Prothrombin Time LSMEAN", "setting": "horses [4]; 2X TID, 60 mg/kg IV three times daily for 9 days", "result": 13.733}, {"measurement": "Prothrombin Time Day 4 Range", "setting": "horses [4]; [5]", "result": "12.9 to 15.6", "unit": "s"}, {"measurement": "Prothrombin Time Day 10 Range", "setting": "horses [4]; [5]", "result": "13.2 to 16.6", "unit": "s"}, {"measurement": "Difference in Individual Horse Day 10 PT and Baseline PT", "setting": "horses [4]; [5]", "result": "0.1 to 0.5", "unit": "s"}, {"measurement": "Prothrombin Time LSMEAN", "setting": "horses [4]; 3X BID, 90 mg/kg IV twice daily for 9 days", "result": 14.238}, {"measurement": "Prothrombin Time Day 4 Range", "setting": "horses [4]; [6]", "result": "13.2 to 14.5", "unit": "s"}, {"measurement": "Prothrombin Time Day 10 Range", "setting": "horses [4]; [6]", "result": "13.4 to 14.9", "unit": "s"}, {"measurement": "Difference in Individual Horse Day 10 PT and Baseline PT", "setting": "horses [4]; [6]", "result": "0.1 to 0.7", "unit": "s"}, {"measurement": "Activated partial thromboplastin time (APTT) or fibrinogen", "setting": "horses [4]; all treatment groups (30-90 mg/kg IV BID or TID, 9 days)", "result": "No main treatment effect"}]}]}
